Test results published in patent US12642788B2, “Pharmaceutical composition comprising benzimidazole derivative compound” (HK INNO.N CORPORATION, priority 2020, dated 2026).

How the values were obtained:
Format in all cases: in vivo, C57BL/6 male mice
colonic tissues [1] = assay: PAS staining analysis and damage to colonic tissues, DSS model; conditions: for scored degree of damage to colonic tissues: score per Table 3
Protocol: (§1) PAS staining analysis was performed on colonic tissues obtained from each of the animal models in which DSS and DNBS had been used, the goblet cell loss was scored according to the following table 2, and the degree of tissue damage was scored according to the following table 3. [table] [table]

[2] = test system: colitis induced by dextran sodium sulfate (DSS); assay: Mouse model of colitis using DSS (body weight, length of large intestine, DAI); conditions: 30 mg/kg/day oral twice a day; for decrease in body weight: vs day 0 = 100%
Protocol: Mouse Model of Colitis Using DSS C57BL/6 male mice, which were eight weeks old (24.0 g), were purchased from Orient Bio, acclimated to the laboratory environment (temperature of 21±2° C. and humidity of 50±10%) for one week with a full access to feed and water, and used in an experiment. The mice were divided into a normal control group (Control, n=6), a group with induced colitis (DSS+Veh, n=8), a group dosed with tegoprazan (DSS+Tegoprazan, n=8), and a group dosed with a control drug (DSS+Rabeprazole, n=8), and the experiment was performed. To induce colitis, DSS (MPbio product, catalog No. 0216011080) was used. The group with induced colitis (DSS+Veh) was dosed with 2.0% DSS in drinking water for consecutive five days, was suspended from 2.0% DSS administration from the 5th day, and was orally dosed with 0.5% (w/v) methylcellulose aqueous solution twice a day for three days until the 8th day. The group dosed with tegoprazan (DSS+Tegoprazan) was orally dosed with tegoprazan (7-{[(4S)-5,7-difluoro-3,4-dihydro-2H-chromen-4-yl]oxy}-N,N,2-trimethyl-1H-benzi midazole-5-carboxamide), which was dissolved in 0.5% (w/v) methylcellulose aqueous solution, at a dose of 30 mg/kg/day twice a day for five days along with 2% DSS and drinking water. The group was suspended from 2.0% DSS administration from the 5th day, and was orally dosed with tegoprazan, which was dissolved in 0.5% (w/v) methylcellulose aqueous solution, twice a day for three days until the 8th day. The group dosed with the control drug (DSS+Rabeprazole) was dosed with DSS and rabeprazole in substantially the same manner as the group dosed with tegoprazan, except for using rabeprazole instead of tegoprazan. In the group dosed with tegoprazan and the group dosed with the control drug, the oral administration was performed twice a day by dividing the administration into morning/afternoon. The body weight of each mouse was measured with regard to the normal control group, the group with induced colitis, the group dosed with tegoprazan, and the group dosed with the control drug. The body weight of the mouse was measured every morning from the start day of experiment (day 0), in which DSS was not administered, until the 9th day, and the body weight of the mouse, which was measured on the start day of experiment (day 0) without the administration of DSS, was converted into 100%. On the 9th day after an initial administration of 2% DSS solution, the mouse was sacrificed and the colon was removed therefrom to measure the length of the removed large intestine. (In FIG. 2, * indicates P<0.05 and ** indicates P<0.01.) As DAI, a change in body weight, bloody stool and stool viscosity were measured every morning, and scored according to the following table 1.

[3] = test system: colitis induced by 2,4-dinitrobenzenesulfonic acid hydrate (DNBS); assay: Mouse model of colitis using DNBS (body weight, length of large intestine, DAI, survival rate); conditions: for body weight: day 0 = 100%; for survival rate: as of day 5
Protocol: Mouse Model of Colitis Using DNBS
C57BL/6 male mice, which were eight weeks old (24.0 g), were purchased from Orient Bio, acclimated to the laboratory environment (temperature of 21±2° C. and humidity of 50±10%) for one week with a full access to feed and water, and used in an experiment.
The mice were divided into a normal control group (Control, n=6), a group with induced colitis (DNBS+Vehicle, n=8), a group dosed with tegoprazan (DNBS+Tegoprazan, n=8), and a group dosed with a control drug (DNBS+Rabeprazole, n=8), and the experiment was performed.
To induce colitis, DNBS (Sigma-Aldrich product, catalog No. 556971) was used. The mice were fasted from one day before being dosed with DNBS to remove the fecal waste in the intestine. The normal control group was dosed with 50% ethanol only by rectal route.
The administration of DNBS was done by dissolving 5 mg of DNBS in 50% ethanol and administering it by rectal route.
In the group dosed with tegoprazan (DNBS+Tegoprazan), the DNBS-administered mouse was orally dosed with tegoprazan (7-{[(4S)-5,7-Difluoro-3,4-dihydro-2H-chromen-4-yl]oxy}-N,N,2-trimethyl-1H-benzi midazole-5-carboxamide), which had been dissolved in 0.5% (w/v) methylcellulose aqueous solution, at a dose of 30 mg/kg/day twice a day for five days.
In the group dosed with the control drug (DNBS+Rabeprazole), the DNBS-administered mouse was dosed with rabeprazole in substantially the same manner as the group dosed with tegoprazan, except for using rabeprazole instead of tegoprazan.
In the group with induced colitis (DNBS+Vehicle), the DNBS-administered mouse was orally dosed with 0.5% (w/v) methylcellulose aqueous solution twice a day.
In the group dosed with tegoprazan, the group dosed with the control drug, and the group with induced colitis, the oral administration was performed twice a day by dividing the administration into morning/afternoon. After being dosed for four days, the mouse was sacrificed on the 5th day.
The body weight of each mouse in the normal control group, the group with induced colitis, the group dosed with tegoprazan, and the group dosed with the control drug was measured. The body weight of the mouse was measured every morning from the start day of experiment before administration of DNBS (day 0) to the 5th day, and the body weight of the mouse before administration of DNBS on day 0 was converted into 100%. In the case of the mouse sacrificed before the end of experiment, the weight of the mouse measured the day before sacrifice was included in the data as of the last day of experiment and converted (refer to FIG. 15 for survival period and survival rate).
On the 5th day after an initial administration of DNBS, the mouse was sacrificed, and the colon was removed therefrom to measure the length of the removed large intestine. (In FIG. 10, * indicates P<0.05.)
As DAI, a change in body weight, bloody stool and stool viscosity were measured every morning, and scored according to the following table 1.
(In relation to the animal model of colitis using DNBS, in the case of the mouse sacrificed before the end of experiment, the DAI score of the mouse measured the day before sacrifice was included in the data as of the last day of experiment and converted (refer to FIG. 15 for survival period and survival rate).)

colonic tissues [4] = assay: PAS staining analysis and damage to colonic tissues, DNBS model
Protocol: as §1

TNF-α [5] = assay: TNF-α mRNA expression in colonic tissues, real-time PCR, DSS model; conditions: compared to the group with induced colitis
Protocol: (§2) In the mouse model of colitis using DSS, the level of mRNA expression of IL-1p, IL-6, Muc 2 and TNF-α was evaluated by using a real-time PCR. (In FIG. 5, * indicates P<0.05, ** indicates P<0.01, and *** indicates P<0.001.)

IL-6 [6] = assay: IL-6 mRNA expression in colonic tissues, real-time PCR, DSS model; conditions: compared to the group with induced colitis
Protocol: as §2

[7] = test system: tight junction (intestinal permeability); assay: FITC-dextran permeability, DSS model; conditions: FITC value in serum 4 hours after oral FITC-dextran
Protocol: Four hours before the mouse was sacrificed in the mouse model of colitis using DSS, the mouse was orally dosed with FITC-dextran (80 mg/mL), after which cardiac puncture was performed to measure an FITC value in serum. Permeability (%) was converted based on the normal control group.

TNF-α [8] = assay: TNF-α mRNA expression in colonic tissues, DNBS model; conditions: compared to the group with induced colitis
IL-17 = IL-17 mRNA expression in colonic tissues, real-time PCR, DNBS model; conditions: compared to the group with induced colitis
Protocol: In the mouse model of colitis using DNBS, the level of mRNA expression of IL-17 was evaluated by using a real-time PCR. (In FIG. 12, ** indicates P<0.01 and *** indicates P<0.001.)

Muc2 = Muc2 mRNA expression in colonic tissues, real-time PCR, DSS model
Protocol: as §2

IL-6 [9] = assay: IL-6 mRNA expression in colonic tissues, DNBS model; conditions: compared to the group with induced colitis
KCNJ1 mRNA = KCNJ1 mRNA expression in colonic tissues, real-time PCR, DSS model; conditions: 30 mg/kg/day oral
Protocol: In the mouse model of colitis using DSS, the difference in expression of KCNJ1 mRNA was measured by using a real-time PCR. (In FIG. 4, ** indicates P<0.01.)

IL-1β = IL-1β production/expression in colonic tissues, DSS model
Protocol: as §2

[10] = 5th day, 30 mg/kg/day oral twice a day

`COCCCOc1ccnc(C[S+]([O-])c2nc3ccccc3[nH]2)c1C` (centres unmarked) [control drug, rabeprazole, reference compound] was tested, and the “scored degree of damage to colonic tissues” value (“scored degree of damage” below) (colonic tissues [1]) was 8.12±1.8 point, the “decrease in body weight” value ([2]; 9th day) was “about 23%” and the body weight [3, 10] was 89%. For the same compound, the survival rate [3] was 75% and the “scored degree of damage” value (colonic tissues [4]; score per Table 3) was 7.0±1.4 point.

For `Cc1nc2cc(C(=O)N(C)C)cc(O[C@H]3CCOc4cc(F)cc(F)c43)c2[nH]1` [tegoprazan, (S)-4-(5,7-difluorochroman-4-yloxy)-N,N,2-trimethyl-1H-benzo[d]imidazole-6-carbox amide], the “crypt damage (PAS staining)” value (colonic tissues [1]; colonic tissues) was “partially intact crypt was observed”, the “goblet cells (PAS staining)” value (colonic tissues [1]; colonic tissues) was “goblet cells were also present compared to the group with induced colitis” and the “scored degree of damage” value (colonic tissues [1]) was 5.38±1.8 point. The “mRNA expression of TNF-α” value (TNF-α [5]) was “statistically significant decrease”, the “mRNA expression of IL-6” value (IL-6 [6]) was “statistically significant decrease” and the “damage to the tight junction (FITC-dextran permeability)” value [7] was “significant decrease in the damage to the tight junction”. The “mRNA expression of TNF-α” value (TNF-α [8]) was “tended to decrease”, the “length of the large intestine” value ([2]; 9th day) was “a rather increase in the length of the large intestine or no difference from the normal control group” and the “decrease in body weight” value ([2]; 9th day) was “about 14%”. For the same compound, the “disease activity index (DAI) score” value ([2]; to 9th day) was “took a turn for the better compared to the group with induced colitis”, the “mRNA expression of IL-17” value (IL-17) was “significant decrease” and the “mRNA expression of Muc2” value (Muc2) was “statistically significant increase”. For the same compound, the “mRNA expression of IL-6” value (IL-6 [9]) was “tended to decrease”, the “expression of KCNJ1 mRNA” value (KCNJ1 mRNA) was “significant decrease in expression of KCNJ1 mRNA” and the “length of the large intestine” value [3, 10] was “no difference in the length of the large intestine from the normal control group”. The body weight [3, 10] was “about 105%”, the survival rate [3] was “all the subjects in the group dosed with tegoprazan survived until the last day of experiment” and the “disease activity index (DAI) score” value ([3]; to 5th day, 30 mg/kg/day oral twice a day) was “DAI drastically decreased from the 4th day”. For the same compound, the “crypt damage (PAS staining)” value (colonic tissues [4]; colonic tissues) was “partially intact crypt was observed”, the “goblet cells (PAS staining)” value (colonic tissues [4]; colonic tissues) was “presence of mucin-producing goblet cells was confirmed” and the “production/expression of IL-1β” value (IL-1β) was “inhibits the production/expression”.
